How the values were obtained:
[1] = test system: Madin-Darby Canine Kidney (MDCK) cells transfected with human P-glycoprotein (hMDR1); details: MDCK-MDR1
Method: Madin-Darby Canine Kidney (MDCK) cells were used in this assay, which are stably transfected with the gene encoding human P-glycoprotein (hMDR1). These cells were cultured in DMEM medium (Dulbecco's Modified Eagle's Medium) high in glucose and supplemented with 10% fetal bovine serum, 1% 5 mM pyruvate, 1% non-essential amino acids solution X5, 20,000 IU/mL of penicillin G and 20,000 IU/mL of streptomycin, a temperature of 37° C., 90% relative humidity and 5% CO2. These cells were seeded in sterile plates on the fourth day of growth or until reaching 90% confluence.
Ten days before carrying out the transport analysis, cells were seeded in Transwells® inserts (1.12 cm2) at a density of 60,000 cells/cm^2. The monolayers were supplemented every two days with fresh culture medium. […] In parallel, B-A experiments were performed (1.5 mL of donor solution in basolateral compartment and 0.5 mL buffer in apical). The monolayers were incubated while stirring (50 rpm) at a temperature of 37° C. for a period of 2 hours. Additionally, this assay was performed in the presence of the Pgp inhibitor elacridar (5 μM). After the stir time, the inserts were removed, the compartments were sampled and the cells were transferred to HPLC vials by diluting these samples with mobile phase chromatography. These samples were kept at −20° C. until their analysis time. […]

[2] = In vivo pharmacokinetics in mice, IV and oral; set-up: species or system male C57BL/6J mice
Method: The animals were classified according to weight and divided into the following groups (Table 7):
20% Kolliphor and 50% PBS at a concentration of 1 mg/mL. From this solution, a 0.4 mg/mL dilution was made for IV administration.
In intravenous (IV) administration, after each compound was administered to the mice, the mice were separated into groups of 3 and were euthanized at times 5, 10, 15, 30, 60, 120, 240, 260, 480 and 1440 minutes. For oral administration (V.O), the mice were separated into groups of 3 and were euthanized at times 15, 30, 60, 120, 240, 260, 480 and 1440 minutes. To obtain zero-time assays, mice were used to which no compound was administered.
Whole blood was obtained from each animal (in microtubes with EDTA); these samples were centrifuged at 9000 g at a temperature of 4° C. for a period of 5 minutes, obtaining the plasma which was stored at −80° C.
In addition, organs such as brain, liver, muscle, epididymal fat, heart and kidney were obtained from the animals, which were frozen in liquid nitrogen and stored at −80° C.
Plasma samples and brain, liver, epididymal fat, and muscle (tissue) samples were analyzed. 2× in volume of water (weight/volume) was added to the tissue samples while 4× in volume of water (weight/volume) was added to the muscle mixture, after which they were homogenized using a Bullet Blender equipment (Next Advance, USA).
All samples were analyzed as a single point by LC-MS/MS in accordance with the analytical methodology already standardized and presented in application example 3.
To begin, a calibration curve was run. For this purpose, the controls, the plasma and organ samples were prepared by adding 180 μL of cold acetonitrile to these, then vortexed for 15 seconds and centrifuged at 6100 g for 30 seconds at 4° C. The supernatant which was obtained from this procedure was diluted in 2 volumes of 0.2% formic acid in water and transferred to a vial that will allow it to be injected into LC-MS/MS.
The conditions for the LC-MS/MS analysis were: • HPLC: Eksigent UltraLC 100 • Autosampler: Eksigent UltraLC 100-XL at RT • Mobile phase: A-0.1% formic acid in water; B-0.1% formic acid in acetonitrile. • Column: YMC Triart 1.9 μm; 2.0×50 mm • Injection volume: 2 μL • Gradient: 5% B for 0.25 min→5-95% B for 0.75 min→95% B for 2 min→95-5% B for 0.25 min→5% B for 0.25 min • Flow: 0.6 mL/min • Mass Spectrometer: Applied Biosystems/SCIEX QTRAP 4500 • Interface: TurbolonSpray (ESI) at 600° C. • Software: Analyst.

[3] = target: T1, recombinant 11β-HSD1 enzyme (Homo sapiens (Human), UniProt P28845); assay: 11β-HSD1 oxidase activity (HTRF Cortisol Kit); assay type: biochemical
T1 sequence (P28845 whole entry): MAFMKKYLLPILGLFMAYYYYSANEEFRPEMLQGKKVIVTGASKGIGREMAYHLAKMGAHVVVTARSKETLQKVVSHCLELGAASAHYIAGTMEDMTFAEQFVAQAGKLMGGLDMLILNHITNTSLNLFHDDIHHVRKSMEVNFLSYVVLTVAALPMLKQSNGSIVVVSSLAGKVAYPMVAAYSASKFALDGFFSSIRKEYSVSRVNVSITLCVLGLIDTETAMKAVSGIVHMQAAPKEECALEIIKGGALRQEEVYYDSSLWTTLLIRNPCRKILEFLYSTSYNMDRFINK
Method: Determination of 11β-HSD1 Oxidase Activity
The Cortisol Kit (Cisbio) product was used for that purpose.
For the analysis, the compounds are reconstituted in DMSO in a stock of 10 mM concentration, from which serial dilutions were prepared for the efficiency curve.
The recombinant 11β-HSD1 enzyme dilutions were prepared in 20 mM Tris Buffer 5 mM EDTA pH 6.0 (Tris buffer).
Initially, the enzyme concentration to be used was determined. For this purpose, a plate for HRTF was prepared with Tris buffer with 100 nM cortisol and 200 μM NADP+, including in the wells of the plate for HTRF together with the enzyme in a 4:1 ratio, respectively, and incubated for 2 hours at 37° C. After this time, the reagents of the Cortisol kit, Cortisol d2 and Cortisol cryptate in sample ratio, Cortisol d2 and cortisol cryptate 2:1:1 were added, incubating this new reaction for 1 hour at room temperature. Subsequently, the fluorescence was determined at 665 and 620 nm.
An HRTF plate was again prepared, where the reaction buffer, the recombinant 11β-HSD1 enzyme and the compound were added in each well in a 3:1:1 ratio, respectively. The plate was incubated at 37° C. for 2 hours. After the incubation time, the reagents of the cortisol kit, cortisol d2 and cortisol cryptate, were added as indicated above. They were then incubated at room temperature for 1 hour to finally read the fluorescence at 665 and 620 nm.

[4] = target: T1, recombinant 11β-HSD1 enzyme; assay: 11β-HSD1 reductase activity (HTRF Cortisol Kit); assay type: biochemical; details: 266 nM cortisone, 333 μM NADPH, read-out: 11b-HSD1 reductase (HTRF) IC50
Method: Determination of 11β-HSD1 Reductase Activity
First, stock solutions of the compounds were prepared in DMSO at a concentration of […], of which serial dilutions were made in order to determine the efficacy curve.
As for the recombinant 11β-HSD1 enzyme (Cayman Chemical, MI, USA; Item No. 10007815), it was prepared in Tris Buffer 20 mM EDTA 5 mM pH 6.0 (Tris buffer) at different dilutions.
Initially, the enzyme concentration to be used in the assays in order to evaluate the biological activity of the compounds was determined. The Cortisol Kit product (Cisbio, MA, USA; Cat no. 62CRTPEG) was used for that purpose.
The protocol consisted of preparing the reaction buffer, adding 266 nM cortisone and 333 μM NADPH in Tris buffer. Then, this reaction buffer is added to the wells of the HTRF (Homogeneous Time Resolved Fluorescence) reaction plate together with the enzyme in a 4:1 ratio respectively, and incubated for 2 hours at 37° C. In the case of the control wells, two wells with Tris buffer were added, without compounds.
After the incubation time, the reagents of the Cortisol kit were added, Cortisol d2 and Cortisol cryptate in sample ratio, Cortisol d2 and cortisol cryptate 2:1:1, in a quantity according to the size of the well as indicated by the supplier (for the negative control of the kit, the cortisol d2 is replaced by the kit's reconstitution buffer). This reaction is incubated for 1 hour at room temperature in order to later read the fluorescence at 665 and 620 nm.
Once the enzyme concentration to be used has been determined, the cortisol kit protocol is continued to determine the efficacy curve for the compounds. As previously done, a plate for HTRF was prepared adding to each well of the reaction buffer, the recombinant 11β-HSD1 enzyme and the compounds to be assayed in a 3:1:1 ratio, respectively. The plate was subsequently incubated at 37° C. for 2 hours.
After the incubation time, the reagents of the cortisol kit, cortisol d2 and cortisol cryptate, are added, and were incubated again for 1 hour at room temperature. Finally, the fluorescence of each well was determined at 665 and 620 nm.

In the case of “1-(3-pyridyl)-2-(3-adamantyl-1,2,4-oxadiazol-5-yl)ethane [BD-44]”, the “Papp compared with high permeability marker minoxidil” value [1] is reported as “higher than those of the high permeability marker minoxidil”, the AUCExtr ([2]; IV, 2 mg/Kg, plasma) is reported as 0.672% and the AUCInf ([2]; IV, 2 mg/Kg, plasma) is reported as 369 ng·h/mL. The AUCfinal ([2]; IV, 2 mg/Kg, plasma) was 368 ng·h/mL, the CL ([2]; IV, 2 mg/Kg, plasma) was 5.42 L/h/kg and the Vz ([2]; IV, 2 mg/Kg, plasma) was 7.95 L/kg. For the same substance, the t1/2 ([2]; IV, 2 mg/Kg, plasma) was 1.02 h, the AUCExtr ([2]; PO, 10 mg/Kg, plasma) was 1.39% and the AUCInf ([2]; PO, 10 mg/Kg, plasma) was 148 ng·h/mL. For the same substance, the AUCfinal ([2]; PO, 10 mg/Kg, plasma) was 146 ng·h/mL, the CL ([2]; PO, 10 mg/Kg, plasma) was 67.3 L/h/kg and the F ([2]; PO, 10 mg/Kg, plasma) was 8.00%. For the same substance, the Vz ([2]; PO, 10 mg/Kg, plasma) was 102 L/kg, the t1/2 ([2]; PO, 10 mg/Kg, plasma) was 1.05 h and the tmax ([2]; PO, 10 mg/Kg, plasma) was 30 min. The “mean time (of elimination) of the drug” value ([2]; administered intravenously, plasma) was 1.02 h, the “mean time (of elimination) of the drug” value ([2]; administered orally, plasma) was 1.05 h and the “time post administration up to which compound was detected” value ([2]; both intravenously and orally, plasma) was “up to 6 hours”. The “detection in tissues (brain, liver, fat, muscle)” value ([2]; oral and intravenous administration) was “not detected in the tissues assayed”, the “bioavailability / apparent availability” value ([2]; plasma) was “low apparent availability” and the “11b-HSD1 oxidase (activ rem %) 100 nM” value ([3]; remaining activity at 100 nM compound) was 107.0%. The “11b-HSD1 oxidase (activ rem %) 100 uM” value ([3]; remaining activity at 100 uM compound) was 94.3% and the IC50 [4] was 3.9 nM.

From patent US12304894B2, “Derivatives of adamantyl oxadiazoles and pharmaceutically acceptable solvates, hydrates and salts thereof, pharmaceutical composition comprising same, synthesis method, suitable for use as effective and selective inhibitors of the reductase activity of the enzyme 11-beta dehydrogenase type 1 …” (PONTIFICIA UNIVERSIDAD CATOLICA DE CHILE, priority 2019, dated 2025)
